Patent publication US5972932A, “Anesthetic method and composition” (Eli Lilly and Company, priority 1997, dated 1999)

Experiments:
[1] = system: 5-HT2C (formorly knowm as 5-HT1C receptor) receptor; assay: pharmacological studies, 5-HT2C receptor activity; settings: formerly 5-HT1C receptor
[2] = system: muscarinic cholinergic receptor; assay: pharmacological studies, muscarinic cholinergic receptor activity

Compound: Cc1cc2c(s1)Nc1ccccc1N=C2N1CCN(C)CC1 [olanzapine, 2-methyl-4-(4-methyl-1-piperazinyl)-10H-thieno[2,3-b][1,5]benzodiazepine]
- activity at the 5-HT2C receptor [1]: active
- muscarinic cholinergic receptor activity [2]: has muscarinic cholinergic receptor activity
